Assay results: ChEMBL document CHEMBL1123796, “New antitumor agents containing the anthracene nucleus” (1987)

What was measured:
Type in all cases: functional
Mus musculus [1] = assay: Tested for percent average weekly weight change in mice at a significant dose of 80 mg/kg administered intraperitoneally after 5 days of treatment; settings: route intraperitoneal
Mus musculus [2] = assay: Tested for skin toxicity in BALB/c mice at a significant dose of 0.25 mg/kg administered intraintradermally and involved concentric circular areas of induration.
P388 [3] = assay: Antileukemic activity against P-388 in mice at a dose of 30 mg/kg administered intraperitoneally after 5 day treatment; settings: Mus musculus, P388, ip, 120 h, route intraperitoneal
L1210 [4] = assay: Effect on RNA synthesis was determined by incorporation of radioligand into L1210 murine leukemia at a concentration of 1 ug/mL. (*: >1 log cell kill); settings: Mus musculus
WiDr = assay: Tested in vitro for inhibitory activity of human tumor cell growth against WIDR colon tumor, by using clonogenic assays.; settings: read-out: ID50 (the source's name)
L1210 [5] = assay: Effect on RNA synthesis was determined by incorporation of radioligand into L1210 murine leukemia at a concentration of 0.5 ug/mL. (*: >1 log cell kill); settings: Mus musculus
Mus musculus [6] = assay: Tested for high-dose toxicity in mice at a significant dose of 80 mg/kg administered intraperitoneally after 1 days of treatment; settings: route intraperitoneal
RPMI-8226 [7] = assay: Effect on protein synthesis was determined by incorporation of radioligand into 8226 human myeloma cells at a concentration of 10 ug/mL (*: >1 log cell kill)
RPMI-8226 [8] = assay: In vitro inhibition of human 8226 myeloma tumor cell line growth.; settings: read-out: ID50 (the source's name)
Mus musculus [9] = assay: Tested for percent average weekly weight change in mice at a significant dose of 100 mg/kg administered intraperitoneally in mice after 5 days of treatment; settings: route intraperitoneal
Mus musculus [10] = assay: Tested for high-dose toxicity in mice at a significant dose of 70 mg/kg administered intraperitoneally after 5 days of treatment; settings: route intraperitoneal
Mus musculus [11] = assay: Tested for skin toxicity in BALB/c mice at a significant dose of 0.75 mg/kg administered intraintradermally and involved concentric circular areas of ulceration
Mus musculus [12] = assay: Tested for skin toxicity in BALB/c mice at a significant dose of 2.00 mg/kg administered intraintradermally and involved concentric circular areas of induration.
Mus musculus [13] = assay: Tested for skin toxicity in BALB/c mice at a significant dose of 2.00 mg/kg administered intraintradermally and involved concentric circular areas of erythema
Mus musculus [14] = assay: Tested for high-dose toxicity in mice at a significant dose of 45 mg/kg administered intraperitoneally after 5 days of treatment; settings: route intraperitoneal
L1210 [15] = assay: Antileukemic activity against L-1210 cells in mice at a dose of 70 mg/kg administered intraperitoneally after 5 day treatment; settings: Mus musculus, L1210, ip, 120 h, route intraperitoneal
Mus musculus [16] = assay: Tested for high-dose toxicity in mice at a significant dose of 100 mg/kg administered intraperitoneally after 5 days of treatment; settings: route intraperitoneal
Mus musculus [17] = assay: Tested for percent average weekly weight change in mice at a significant dose of 60 mg/kg administered intraperitoneally after 5 days of treatment; settings: route intraperitoneal
Mus musculus [18] = assay: Tested for percent average weekly weight change in mice at a significant dose of 30 mg/kg administered intraperitoneally; settings: route intraperitoneal
Mus musculus [19] = assay: Tested for high-dose toxicity in mice at a significant dose of 52.5 mg/kg administered intraperitoneally after 5 days of treatment; settings: route intraperitoneal
L1210 [20] = assay: Antileukemic activity against L-1210 cells in mice at a dose of 37.5 mg/kg administered intraperitoneally after 5 day treatment; settings: Mus musculus, L1210, ip, 120 h, route intraperitoneal
RPMI-8226 [21] = assay: Effect on RNA synthesis was determined by incorporation of radioligand into 8226 human myeloma cells at a concentration of 0.01 ug/mL
Mus musculus [22] = assay: Tested for percent average weekly weight change in mice at a significant dose of 90 mg/kg administered intraperitoneally after 5 days of treatment; settings: route intraperitoneal
[23] = Tested in vitro for inhibitory activity of human tumor cell growth against HEC 1A endometrial tumor, by using clonogenic assays.; settings: read-out: ID50 (the source's name)
Mus musculus [24] = assay: Tested for skin toxicity in BALB/c mice at a significant dose of 2.5 mg/kg administered intraintradermally and involved concentric circular areas of ulceration
RPMI-8226 [25] = assay: Effect on DNA synthesis was determined by incorporation of radioligand into 8226 human myeloma cells at a concentration of 0.01 ug/mL
L1210 [26] = assay: Effect on protein synthesis was determined by incorporation of radioligand into L1210 murine leukemia at a concentration of 0.01 ug/mL; settings: Mus musculus
Mus musculus [27] = assay: Tested for percent average weekly weight change in mice at a significant dose of 37.5 mg/kg administered intraperitoneally after 5 days of treatment; settings: route intraperitoneal
L1210 [28] = assay: Effect on DNA synthesis was determined by incorporation of radioligand into L1210 murine leukemia at a concentration of 0.01 ug/mL; settings: Mus musculus
Mus musculus [29] = assay: Tested for percent average weekly weight change in mice at a significant dose of 70 mg/kg administered intraperitoneally after 5 days of treatment; settings: route intraperitoneal
Mus musculus [30] = assay: Tested for high-dose toxicity in mice at a significant dose of 30 mg/kg administered intraperitoneally after 5 days of treatment; settings: route intraperitoneal
L1210 [31] = assay: Effect on protein synthesis was determined by incorporation of radioligand into L1210 murine leukemia at a concentration of 0.3 ug/mL (*: >50% cell kill); settings: Mus musculus
RPMI-8226 [32] = assay: Effect on protein synthesis was determined by incorporation of radioligand into 8226 human myeloma cells at a concentration of 1 ug/mL. (*: >1 log cell kill)
Mus musculus [33] = assay: Tested for skin toxicity in BALB/c mice at a significant dose of 0.25 mg/kg administered intraintradermally and involved concentric circular areas of ulceration
RPMI-8226 [34] = assay: Effect on DNA synthesis was determined by incorporation of radioligand into 8226 human myeloma cells at a concentration of 0.5 ug/mL. (*: >1 log cell kill)
Mus musculus [35] = assay: Tested for skin toxicity in BALB/c mice at a significant dose of 2.5 mg/kg administered intraintradermally and involved concentric circular areas of induration.
Mus musculus [36] = assay: Tested for high-dose toxicity in mice at a significant dose of 60 mg/kg administered intraperitoneally after 5 days of treatment; settings: route intraperitoneal
L1210 [37] = assay: Effect on protein synthesis was determined by incorporation of radioligand into L1210 murine leukemia at a concentration of 10 ug/mL (*: >1 log cell kill); settings: Mus musculus
P388 [38] = assay: Antileukemic activity against P-388 in mice at a dose of 80 mg/kg administered intraperitoneally after 5 day treatment; settings: Mus musculus, P388, ip, 120 h, route intraperitoneal
Mus musculus [39] = assay: Tested for high-dose toxicity in mice at a significant dose of 37.5 mg/kg administered intraperitoneally after 5 days of treatment; settings: route intraperitoneal
RPMI-8226 [40] = assay: Effect on DNA synthesis was determined by incorporation of radioligand into 8226 human myeloma cells at a concentration of 0.3 ug/mL (*: >50% cell kill)
Mus musculus [41] = assay: Tested for high-dose toxicity in mice at a significant dose of 90 mg/kg administered intraperitoneally after 5 days of treatment; settings: route intraperitoneal

Which “Average weekly weight change” value (Mus musculus [1]) does the source give for `CN(C)CCNCc1c2ccccc2c(CNCCN(C)C)c2ccccc12` here?
Its value is -10%.

What about the “Extent of skin lesions” value (Mus musculus [2]) of the same compound?
Its value is 0.7 cm**2.

And the ILS at 30 mg/kg (P388 [3])?
Its ILS at 30 mg/kg is 0%.

What about the inhibition at 1 µg/mL (L1210 [4]) of the same compound?
The inhibition at 1 µg/mL was 6.9%.

What about the IC50 (WiDr) of the same compound?
Its IC50 is 180 nM.

What about the inhibition at 0.5 µg/mL (L1210 [5]) of the same compound?
The inhibition at 0.5 µg/mL was 7.2%.

What about the Lethality (Mus musculus [6]) of the same compound?
Its Lethality is 10%.

And the “Median day of death” value (Mus musculus [6])?
The value was 12.

What about the inhibition at 10 µg/mL (RPMI-8226 [7]) of the same compound?
Its inhibition at 10 µg/mL is 17.6%.

What about the IC50 (RPMI-8226 [8]) of the same compound?
Its IC50 is 160 nM.

What about the “Average weekly weight change” value (Mus musculus [9]) of the same compound?
Its value is -15%.

And the Lethality (Mus musculus [10])?
The Lethality was 10%.

And the “Median day of death” value (Mus musculus [10])?
The value was 0.

What about the “Extent of skin lesions” value (Mus musculus [11]) of the same compound?
Its value is 1 cm**2.

What about the “Extent of skin lesions” value (Mus musculus [12]) of the same compound?
The value was 5.3 cm**2.

And the “Extent of skin lesions” value (Mus musculus [13])?
Its value is 3.1 cm**2.

And the Lethality (Mus musculus [14])?
The Lethality was 30%.

What about the “Median day of death” value (Mus musculus [14]) of the same compound?
Its value is 2.

What about the ILS at 70 mg/kg (L1210 [15]) of the same compound?
The ILS at 70 mg/kg was 30%.

What about the Lethality (Mus musculus [16]) of the same compound?
Its Lethality is 80%.

And the “Median day of death” value (Mus musculus [16])?
The value was 8.

What about the “Average weekly weight change” value (Mus musculus [17]) of the same compound?
Its value is 0%.

What about the “Average weekly weight change” value (Mus musculus [18]) of the same compound?
Its value is -3%.

And the Lethality (Mus musculus [19])?
The Lethality was 100%.

And the “Median day of death” value (Mus musculus [19])?
Its value is 4.

What about the ILS at 37.5 mg/kg (L1210 [20]) of the same compound?
The ILS at 37.5 mg/kg was 11%.

And the inhibition at 0.01 µg/mL (RPMI-8226 [21])?
The inhibition at 0.01 µg/mL was 0%.

And the “Average weekly weight change” value (Mus musculus [22])?
Its value is -11%.

And the IC50 [23]?
Its IC50 is 360 nM.

What about the “Extent of skin lesions” value (Mus musculus [24]) of the same compound?
The value was 3.8 cm**2.

What about the inhibition at 0.01 µg/mL (RPMI-8226 [25]) of the same compound?
The inhibition at 0.01 µg/mL was 0%.

What about the inhibition at 0.01 µg/mL (L1210 [26]) of the same compound?
Its inhibition at 0.01 µg/mL is 0%.

What about the “Average weekly weight change” value (Mus musculus [27]) of the same compound?
The value was -7%.

What about the inhibition at 0.01 µg/mL (L1210 [28]) of the same compound?
Its inhibition at 0.01 µg/mL is 0%.

What about the “Average weekly weight change” value (Mus musculus [29]) of the same compound?
Its value is -7%.

And the Lethality (Mus musculus [30])?
The Lethality was 0%.

What about the inhibition at 0.3 µg/mL (L1210 [31]) of the same compound?
The inhibition at 0.3 µg/mL was 9.8%.

What about the inhibition at 1 µg/mL (RPMI-8226 [32]) of the same compound?
Its inhibition at 1 µg/mL is 45.9%.

And the “Extent of skin lesions” value (Mus musculus [33])?
Its value is 0.2 cm**2.

What about the inhibition at 0.5 µg/mL (RPMI-8226 [34]) of the same compound?
The inhibition at 0.5 µg/mL was 24.3%.

What about the “Extent of skin lesions” value (Mus musculus [35]) of the same compound?
Its value is 6.1 cm**2.

What about the Lethality (Mus musculus [36]) of the same compound?
Its Lethality is 0%.

What about the inhibition at 10 µg/mL (L1210 [37]) of the same compound?
Its inhibition at 10 µg/mL is 87.3%.

And the ILS at 80 mg/kg (P388 [38])?
The ILS at 80 mg/kg was 0%.

What about the Lethality (Mus musculus [39]) of the same compound?
The Lethality was 20%.

And the “Median day of death” value (Mus musculus [39])?
The value was 2.

And the inhibition at 0.3 µg/mL (RPMI-8226 [40])?
Its inhibition at 0.3 µg/mL is 8.4%.

And the Lethality (Mus musculus [41])?
The Lethality was 20%.

And the “Median day of death” value (Mus musculus [41])?
The value was 3.
